Assay results reported in article PMC4193777 (PLoS ONE, 2014).

Assays:
[1] = target: T1, FPR2 (Homo sapiens, UniProt P25090); experiment: Neutrophil NADPH-oxidase activity (superoxide release), direct activation of naive cells; format: cell-based
T1 construct: Human peripheral blood neutrophils were isolated from buffy coats from healthy blood donors; endogenous in cells; host or cells: primary human peripheral blood neutrophils from buffy coats of healthy donors
T1 sequence (P25090 1-351): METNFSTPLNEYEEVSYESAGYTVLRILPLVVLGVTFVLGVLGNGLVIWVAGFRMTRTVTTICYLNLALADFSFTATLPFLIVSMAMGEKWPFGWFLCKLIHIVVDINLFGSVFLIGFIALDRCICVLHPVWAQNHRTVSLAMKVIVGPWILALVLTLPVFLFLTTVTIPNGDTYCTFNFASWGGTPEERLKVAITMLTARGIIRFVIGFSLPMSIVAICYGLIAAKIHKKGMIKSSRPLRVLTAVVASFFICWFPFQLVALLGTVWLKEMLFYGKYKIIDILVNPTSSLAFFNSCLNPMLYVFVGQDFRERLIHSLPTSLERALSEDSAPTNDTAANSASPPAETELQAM
Procedure: (§1) Human peripheral blood neutrophils were isolated from buffy coats from healthy blood donors using dextran sedimentation and Ficoll-Paque gradient centrifugation as described. The remaining erythrocytes were disrupted by hypotonic lysis, the neutrophils were washed twice, resuspended in KRG, and stored on melting ice until use. This isolation procedure permits cells to be purified with minimal granule mobilization.
The NADPH-oxidase activity was determined using isoluminol-enhanced chemiluminescence (CL), [27]. The CL activity was measured in a six-channel Biolumat LB 9505 (Berthold Co., Wildbad, Germany), using disposable 4-ml polypropylene tubes with a 900 µl reaction mixture containing 10^5 cells, isoluminol (2×10^−5 M) and HRP (2 U). The tubes were equilibrated in the Biolumat for 5 min at 37°C, after which the stimulus (100 µl) was added and the light emission was recorded continuously. Receptor desensitized cells were defined as naïve (non-desensitized) cells that had first been stimulated with a receptor specific agonist and returned to baseline after the resulting release of superoxide before a second stimulation. When reactivation experiments were performed with antagonists, the antagonists were added to the CL reaction mixture 1 min before the second stimulation. For studies with signaling inhibitors, cells were incubated with inhibitors at 37°C for 15 min before agonist addition. Control cells received no treatment but were incubated under the same conditions.
Data analysis was performed using GraphPad Prism 6.0 (Graphpad Software, San Diego, CA, USA).
Representative experiments out of more than five are shown and an arrow indicates the time point for agonist addition. Abscissa: Time of study (min); ordinate: Superoxide production (Mcpm).

[2] = target: T1, FPR2; experiment: Homologous desensitization of neutrophils (superoxide); format: cell-based; conditions: first F2Pal10 (500 nM) then WKYMVM (40 nM), or reversed order, five minutes apart
Procedure: as §1
The NADPH-oxidase activity was determined using isoluminol-enhanced chemiluminescence (CL), [27]. The CL activity was measured in a six-channel Biolumat LB 9505 (Berthold Co., Wildbad, Germany), using disposable 4-ml polypropylene tubes with a 900 µl reaction mixture containing 10^5 cells, isoluminol (2×10^−5 M) and HRP (2 U). The tubes were equilibrated in the Biolumat for 5 min at 37°C, after which the stimulus (100 µl) was added and the light emission was recorded continuously. […]
Figure 1 The F2Pal10 pepducin specifically activates FPR2. A. Primary human neutrophils were activated by F2Pal10 (500 nM) in the absence (solid line) or presence of the receptor specific inhibitor PBP10 (FPR2 specific inhibitor; 1 µM final concentration, dashed line) or the FPR1 antagonist cyclosporin H (CysH; 1 µM final concentration, dotted line) and the release of superoxide anions was recorded continuously. […] The release of superoxide anions was recorded continuously. […]

[3] = tested on: neutrophils; experiment: Calcium mobilization in neutrophils; format: cell-based, human; conditions: WKYMVM 100 nM or F2Pal10 500 nM
Procedure: Neutrophils or transfected HL-60 cells at a density of 5×10^7 cells/ml in KRG containing 0.1% BSA were loaded with 5 µM FURA 2-AM for 30 minutes in the dark at room temperature. The cells were then diluted 1/2 in RPMI 1640 culture medium without phenol red (PAA Laboratories GmbH, Pasching, Austria) and centrifuged. Finally, the cells were washed once with KRG and resuspended in the same buffer at a density of 2×10^7/ml. Calcium measurements were carried out in a PerkinElmer fluorescence spectrophotometer (LC50), with excitation wavelengths of 340 nm and 380 nm, an emission wavelength of 509 nm, and slit widths of 5 nm and 10 nm, respectively. The transient rise in intracellular calcium is presented as the ratio of fluorescence intensities (340 nm: 380 nm) detected. The measuring cuvette contained catalase (2000 U) to counteract inactivation of the chemoattractants by the MPO-H2O2-system. […] The relative calcium level was expressed as a ratio between Fluo-3 and Fura Red (FL-1/FL-3) fluorescence over time.
Figure 5 F2Pal10 induces pertussis toxin sensitive superoxide production and triggers mobilization of calcium from intracellular stores. […] Abscissa, time of study (sec); ordinate, fluorescence (arbitrary unit). […]

## CSCC[C@H](NC(=O)[C@@H](NC(=O)[C@H](CCSC)NC(=O)[C@H](Cc1ccc(O)cc1)NC(=O)[C@H](CCCCN)NC(=O)[C@@H](N)Cc1c[nH]c2ccccc12)C(C)C)C(N)=O [WKYMVM]
[1]; first stimulation of naive neutrophils, 10 nM WKYMVM≈100 nM F2Pal10
  concentration inducing comparable sub-maximum response, pair 1: 10 nM
[1]; first stimulation of naive neutrophils, 25 nM WKYMVM≈250 nM F2Pal10
  concentration inducing comparable sub-maximum response, pair 2: 25 nM
[1]; first stimulation of naive neutrophils, 40 nM WKYMVM≈500 nM F2Pal10
  concentration inducing comparable sub-maximum response, pair 3: 40 nM
[1]; upon stimulation of neutrophils
  time to peak of radical production: around one
[2]
  desensitization to second FPR2 agonist: vice versa
[3]; Fluo-3/Fura Red, without EGTA
  rise in cytosolic Ca2+ in neutrophils: a rise in the cytosolic concentration of Ca^2+ was induced
[3]; extracellular Ca2+ removed by EGTA (2 mM)
  rise in cytosolic Ca2+ in neutrophils, with EGTA: The rise was evident also when extracellular Ca^2+ was removed
